# Measured values published in patent publication US8258128B2, “Organic compounds” (Novartis AG, priority 2006, dated 2012).
# Where “and” joins values, the source holds several entries; their conditions need not be identical. Identical values can stand only once. Entries after “also recorded” stand apart in the source; their conditions may differ. Marks after values point to notes of the source that are not given here.
# Assays:
# [1] = test system: rat carrageenan edema model; assay: Carrageenan edema in the rat (paw swelling); format: in vivo
# Protocol: Carrageenan edema in the rat: The effects of COMPOUND A are investigated in the carrageenan edema model. In this model an acute paw swelling is induced by the sub-plantar injection of carrageenan. The paw swelling has a duration of approximately 8 hours and is completely resolved at 24 hours. The model is used to assess anti-inflammatory activities of new therapeutics and is also sensitive to drugs such as COX-inhibitors like Diclofenac, which is used as a positive control compound in the model.
# Method: Male OFA rats (5 animals/group) are treated orally with COMPOUND A (1, 3 and 9 mg/kg), Diclofenac (3 mg/kg) or vehicle (placebo formulation). One hour later (0 hours) the rats receive a 100 μl intra-plantar injection of a 1% w/v carrageenan solution in 0.9% saline in the hind paw and the diameter of the paw is measured by means of a micro-caliper. The paw diameter measurements are repeated 3 and 5 hours after injection of the carrageenan. Percentage inhibition of paw swelling at 3 and 5 hours is calculated by reference to vehicle treated animals (0% inhibition).
# Edema is induced by a sub-plantar injection of carrageenan in the paw of the rat. Paw diameters are measured at the time of carrageenan injection (0 hours) and at 3 and 5 hours. Compounds are administered 1 hour before the carrageenan injection. COMPOUND A was dosed at 1, 3 and 9 mg/kg p.o. and Diclofenac at 3 mg/kg p.o.
# [2] = test system: developing Adjuvant-induced arthritis in rats; assay: Developing adjuvant-induced arthritis in rats (prophylactic dosing schedule); format: in vivo, rat; details: for % inhibition: day 0 to day 14; for Swelling (mm) ± SEM: day 0 to day 14, readout day 14
# Text: Adjuvant arthritis can be treated using two different dosing schedules; either starting at the time of immunization with adjuvant (prophylactic dosing) or from day 15 when the arthritic response is already established (therapeutic dosing). It is more difficult to inhibit adjuvant arthritis with the therapeutic dosing schedule as compared to the prophylactic schedule. Both versions of adjuvant arthritis are, however, extremely sensitive to the effects of both non-selective COX inhibitors and COX 2 selective inhibitors where 70-90% inhibition of swelling can be achieved at appropriate doses. These models may be predictive for some of the processes thought to be relevant in rheumatoid arthritis.
# Method: Female Wistar rats weighing 150-170 g (housed in standard conditions, 5 animals per cage, with food and water ad libitum) are injected i.d. at the base of the tail with 0.1 ml of mineral oil containing 0.6 mg of lyophilized heat-killed Mycobacterium tuberculosis. The rats are treated orally with COMPOUND A or placebo formulation from day 15 to day 22 (therapeutic dosing schedule) or with COMPOUND A from day 0 to day 14 after immunization (prophylactic dosing schedule). At the end of the experiment, the swelling of the tarsal joints is measured by means of a micro-caliper. For the comparison study to Diclofenac both compounds are given from day 15 to day 29 with readouts at day 22 and 29. Percentage inhibition of paw swelling is calculated by reference to placebo treated arthritic animals (0% inhibition) and placebo treated normal animals (100% inhibition). Five animals are used per group. Data are analyzed using Kruskal-Wallis non-parametric ANOVA followed by Dunn's Multiple Comparison test.
# [3] = test system: collagen-induced arthritis in the rats; assay: Collagen-induced arthritis in the rats, hind paw swelling; format: in vivo, rat
# Text: Animal models of RA need to reflect at least some of the features found in human RA (Billingham et al., 1979). Collagen-induced arthritis (CIA) has been proposed to meet these requirements (Durie et al., 1994). Especially the similarity in the joint pathophysiology makes this animal model most attractive for the evaluation of anti-rheumatic drugs (Takeshita et al., 1997). Synovial hyperplasia, which is an integral part of the disease, parallels the migration of leukocytes into the joint space; erosion and destruction of the cartilage surface can also be found (Holmdahl et al., 1985). The rat CIA, originally described by Trentham et al. (1977), was established and extensive studies with CsA were done, including three-dimensional magnetic resonance imaging (MRI) and histology (Beckmann et al., 1995; 1998). Differences in the susceptibility of several rat strains for the development of the disease have been reported (Cremer et al., 1995; Kamada et al., 1997; Knoerzer et al., 1997).
# Method: For this study, COMPOUND A and COX-inhibitor Diclofenac are dissolved in a solvent containing 5% of glucose (5 ml/kg). Compounds are given orally once a day. Female rats of the WAGxBUF/F1 crossbred strain (weight 130 g) are used. The animals are divided into several groups, one placebo group (N=8), and four treatment groups (each N=7-8). Treatment starts on peak of disease (day 0) and continues for 11 days. Swelling is assessed at regular time intervals by measuring the external thickness of the hind paws in the region of the metatarsals using a micro-caliper. Tissue samples for histological evaluation are obtained at the end of the in vivo experiment, 5 h after the last oral dose of COMPOUND A or placebo on day 11.
# Results shown are means±SEM of groups of each 4-8 animals of paw diameters in mm on day-12 (before the immunization with Type II collagen in incomplete Freund's adjuvant), day 0 (start of treatment) and day 11 (end of treatment).
# The data shown represent the ability of the treatment (COMPOUND A at 4 different increasing doses) to reduce the volume of the hind paw measured at day 2, day 7 and day 11.
smiles,measurement,setting,value
"COC1=Nc2cc(Cl)ccc2/C(=C/C(=O)O)c2sc(Cl)cc21 [COMPOUND A, [2,7-Dichloro-10-methoxy-3-thia-9-aza-benzo[f]azulen-(4Z)-ylidene]-acetic acid]",% inhibition of paw swelling,"[1]; 1 mg/kg p.o., 3 hrs after carrageenan",58%
same,% inhibition of paw swelling,"[1]; 1 mg/kg p.o., 5 hrs after carrageenan",65%
same,% inhibition of paw swelling,"[1]; 3 mg/kg p.o., 3 hrs after carrageenan",67%
same,% inhibition of paw swelling,"[1]; 3 mg/kg p.o., 5 hrs after carrageenan",48%
same,% inhibition of paw swelling,"[1]; 9 mg/kg p.o., 3 hrs after carrageenan",88%
same,% inhibition of paw swelling,"[1]; 9 mg/kg p.o., 5 hrs after carrageenan",74%
same,inhibition in the carrageenan edema model (in words),"[1]; after 3 and 5 hours, dose of 1 to 9 mg/kg",dose-related inhibition
same,% inhibition,[2]; 0.3 mg/kg p.o.,14.3 * %
same,Swelling (mm) ± SEM,[2]; 0.3 mg/kg p.o.,10.9 ± 0.6 mm
same,% inhibition,[2]; 1 mg/kg p.o.,57.1 * %
same,Swelling (mm) ± SEM,[2]; 1 mg/kg p.o.,9.1 ± 0.5 mm
same,% inhibition,[2]; 3 mg/kg p.o.,88% and 88.1 ** %
same,Swelling (mm) ± SEM,[2]; 3 mg/kg p.o.,7.8 ± 0.2 mm
same,ED50,"[2]; Rattus norvegicus, po, prophylactic dosing schedule, read-out: calculated ED50",0.8 mg/kg
same,"hind paw diameter, mean ± SEM","[3]; 0.3 mg/kg group, Day 0 (start of treatment)",5.406 ± 0.448 mm
same,"hind paw diameter, mean ± SEM","[3]; 0.3 mg/kg group, Day −12 (before immunization)",3.069 ± 0.016 mm
same,"median inhibition of swelling, analysis of the AUC during day 0 to 11",[3]; 0.3 mg/kg per day p.o.,29±9.2%
same,Effect on hind paw swelling,"[3]; 0.3 mg/kg per day p.o., Day 0-11 (AUC)",−29 ± 9.2%
same,Effect on hind paw swelling,"[3]; 0.3 mg/kg per day p.o., Day 2",−33% **
same,Effect on hind paw swelling,"[3]; 0.3 mg/kg per day p.o., Day 7",−31% *
same,Effect on hind paw swelling,"[3]; 0.3 mg/kg per day p.o., Day 11",−20%
same,"hind paw diameter, mean ± SEM","[3]; 0.3 mg/kg per day p.o., Day 11 (end of treatment)",4.417 ± 0.079 mm
same,"hind paw diameter, mean ± SEM","[3]; 1 mg/kg group, Day 0 (start of treatment)",5.350 ± 0.344 mm
same,"hind paw diameter, mean ± SEM","[3]; 1 mg/kg group, Day −12 (before immunization)",3.107 ± 0.046 mm
same,"median inhibition of swelling, analysis of the AUC during day 0 to 11",[3]; 1 mg/kg per day p.o.,37±6.8%
same,Effect on hind paw swelling,"[3]; 1 mg/kg per day p.o., Day 0-11 (AUC)",−37 ± 6.8%
same,Effect on hind paw swelling,"[3]; 1 mg/kg per day p.o., Day 2",−40% **
same,Effect on hind paw swelling,"[3]; 1 mg/kg per day p.o., Day 7",−38% **
same,Effect on hind paw swelling,"[3]; 1 mg/kg per day p.o., Day 11",−47% ***
same,"hind paw diameter, mean ± SEM","[3]; 1 mg/kg per day p.o., Day 11 (end of treatment)",3.983 ± 0.064 mm
same,"hind paw diameter, mean ± SEM","[3]; 3 mg/kg group, Day 0 (start of treatment)",5.379 ± 0.224 mm
same,"hind paw diameter, mean ± SEM","[3]; 3 mg/kg group, Day −12 (before immunization)",3.136 ± 0.026 mm
same,"median inhibition of swelling, analysis of the AUC during day 0 to 11",[3]; 3 mg/kg per day p.o.,51±7.1%
same,Effect on hind paw swelling,"[3]; 3 mg/kg per day p.o., Day 0-11 (AUC)",−51 ± 7.1%
same,Effect on hind paw swelling,"[3]; 3 mg/kg per day p.o., Day 2",−59% ***
same,Effect on hind paw swelling,"[3]; 3 mg/kg per day p.o., Day 7",−47% ***
same,Effect on hind paw swelling,"[3]; 3 mg/kg per day p.o., Day 11",−71% ***
same,"hind paw diameter, mean ± SEM","[3]; 3 mg/kg per day p.o., Day 11 (end of treatment)",3.592 ± 0.085 mm
same,"hind paw diameter, mean ± SEM","[3]; 9 mg/kg group, Day 0 (start of treatment)",5.364 ± 0.231 mm
same,"hind paw diameter, mean ± SEM","[3]; 9 mg/kg group, Day −12 (before immunization)",3.043 ± 0.028 mm
same,"median inhibition of swelling, analysis of the AUC during day 0 to 11",[3]; 9 mg/kg per day p.o.,67±5.4%
same,Effect on hind paw swelling,"[3]; 9 mg/kg per day p.o., Day 0-11 (AUC)",−67 ± 5.4%
same,Effect on hind paw swelling,"[3]; 9 mg/kg per day p.o., Day 2",−69% ***
same,Effect on hind paw swelling,"[3]; 9 mg/kg per day p.o., Day 7",−75% ***
same,Effect on hind paw swelling,"[3]; 9 mg/kg per day p.o., Day 11",−90% ***
same,"hind paw diameter, mean ± SEM","[3]; 9 mg/kg per day p.o., Day 11 (end of treatment)",3.275 ± 0.038 mm
same,detrimental effect on body weight gain,"[3]; 0.3 to 9 mg/kg per day p.o., 11 days",not observed; also recorded: does not interfere with body weight gain
